Laboratory results reported in patent US8362000B2, “Azetidinyl diamides as monoacylglycerol lipase inhibitors” (Janssen Pharmaceutica NV, priority 2009, dated 2013).
Read-outs that look alike come from different tables or passages of the source.

Molecular target: T1, mutant MGL (Homo sapiens, UniProt Q99685, L169S/L176S)
T1 sequence (Q99685 1-303 L169S/L176S): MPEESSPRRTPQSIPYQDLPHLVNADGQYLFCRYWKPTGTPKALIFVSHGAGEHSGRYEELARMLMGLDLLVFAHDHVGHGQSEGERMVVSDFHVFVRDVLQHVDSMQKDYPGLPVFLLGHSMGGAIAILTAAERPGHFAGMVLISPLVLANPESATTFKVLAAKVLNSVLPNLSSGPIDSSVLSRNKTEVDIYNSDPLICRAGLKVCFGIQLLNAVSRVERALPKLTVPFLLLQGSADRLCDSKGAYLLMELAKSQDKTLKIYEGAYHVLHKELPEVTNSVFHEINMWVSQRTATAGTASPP
Experiment: MGL ThermoFluor assay - mutant
Assay type: binding
Settings: read-out: MGL mutant ThermoFluor Kd

[1] = ThermoFluor concentration-response
[2] = ThermoFluor thermal stability binding assay

Method: The ThermoFluor (TF) assay is a 384-well plate-based binding assay that measures thermal stability of proteins^1,2. […] TF dye used in all experiments was 1,8-ANS (Invitrogen: A-47). Final TF assay conditions used for MGL studies were 0.07 mg/ml of mutant MGL, 100 μM ANS, 200 mM NaCl, 0.001% Tween-20 in 50 mM PIPES (pH=7.0).
Screening compound plates contained 100% DMSO compound solutions at a single concentration. […] Columns 12 and 24 were used as DMSO reference and contained no compound. […] Following compound dispension, protein and dye solutions were added to achieve the final assay volume of 3 μL.
Bar-coded assay plates were robotically loaded onto a thermostatically controlled PCR-type thermal block and then heated from 40 to 90° C. degrees at a ramp-rate of 1° C./min for all experiments. Fluorescence was measured by continuous illumination with UV light (Hamamatsu LC6), supplied via fiber optics and filtered through a band-pass filter (380-400 nm; >60D cutoff). Fluorescence emission of the entire 384-well plate was detected by measuring light intensity using a CCD camera (Sensys, Roper Scientific) filtered to detect 500±25 nm, resulting in simultaneous and independent readings of all 384 wells. A single image with 20-sec exposure time was collected at each temperature, and the sum of the pixel intensity in a given area of the assay plate was recorded vs temperature and fit to standard equations to yield the Tm^1. • 1.
For some experiments, quantitative NMR spectroscopy (qNMR) was used to measure concentration of the initial 100% DMSO compound solutions and, using the same fitting method, qKd values were determined

SMILES | Kd [1] [nM] | Kd [2] [nM]
O=C(c1ccc(Oc2ccc(Cl)cc2)cc1)N1CC(N2CCN(C(=O)c3nccs3)CC2)C1 [Cpd 420, 1-(1-{[4-(4-Chlorophenoxy)phenyl]carbonyl}azetidin-3-yl)-4-(1,3-thiazol-2-ylcarbonyl)piperazine] | 5 | 
O=C(c1ccc(Oc2cccc(Cl)c2)cc1)N1CC(N2CCN(C(=O)c3nccs3)CC2)C1 [Cpd 421, 1-(1-{[4-(3-Chlorophenoxy)phenyl]carbonyl}azetidin-3-yl)-4-(1,3-thiazol-2-ylcarbonyl)piperazine] | 4 | 
O=C(c1ccccc1)N1CCN(C2CN(C(=O)c3ccc(Oc4ccc(Cl)cc4)cc3)C2)CC1 [Cpd 425] | 200 | 
O=C(c1ccccc1)N1CCN(C2CN(C(=O)c3ccc(Oc4cccc(Cl)c4)cc3)C2)CC1 [Cpd 426] | 250 | 
O=C(c1ccccc1)N1CCN(C2CN(C(=O)c3ccc(O[C@H]4CCN(C(=O)N5CCCC5)C4)c(I)c3)C2)CC1 [Cpd 450, 1-{1-[(3-Iodo-4-{[(3S)-1-(pyrrolidin-1-ylcarbonyl)pyrrolidin-3-yl]oxy}phenyl)carbonyl]azetidin-3-yl}-4-(phenylcarbonyl)piperazine] | 50 | 
O=C(c1ccc(O[C@H]2CCN(C(=O)N3CCCC3)C2)c(I)c1)N1CC(N2CCN(C(=O)c3nccs3)CC2)C1 [Cpd 452] | 200 | 
O=C(c1ccc(CSc2cccc(Cl)c2)cc1)N1CC(N2CCN(C(=O)c3nccs3)CC2)C1 [Cpd 454] | 14.7 | 
O=C(c1ccc(CNc2cccc(Cl)c2)cc1)N1CC(N2CCN(C(=O)c3nccs3)CC2)C1 [Cpd 455] | 8.5 | 
O=C(c1ccccc1)N1CCN(C2CN(C(=O)c3ccccc3C3CCNC3)C2)CC1 (stereo not drawn) [Cpd 456, 1-(Phenylcarbonyl)-4-{1-[(2-pyrrolidin-3-ylphenyl)carbonyl]azetidin-3-yl}piperazine] | > 76700 | 
O=C(c1ccccc1)N1CCN(C2CN(C(=O)c3ccc(Cc4ccccc4)cc3)C2)C(CO)C1 (stereo not drawn) [Cpd 457, [1-{1-[(4-Benzylphenyl)carbonyl]azetidin-3-yl}-4-(phenylcarbonyl)piperazin-2-yl]methanol] | 4820 | 
O=C(c1ccccc1)N1CCN(C2CN(C(=O)c3ccc(-c4ccccc4)cc3)C2)C(CO)C1 (stereo not drawn) [Cpd 458, {1-[1-(Biphenyl-4-ylcarbonyl)azetidin-3-yl]-4-(phenylcarbonyl)piperazin-2-yl}methanol] | 6670 | 
O=C(c1ccc(Cc2ccccc2)cc1)N1CC(N2CCN(C(=O)c3ccccc3)C(CO)C2)C1 (stereo not drawn) [Cpd 459, [4-{1-[(4-Benzylphenyl)carbonyl]azetidin-3-yl}-1-(phenylcarbonyl)piperazin-2-yl]methanol] | 3330 | 
O=C(c1ccc(-c2ccccc2)cc1)N1CC(N2CCN(C(=O)c3ccccc3)C(CO)C2)C1 (stereo not drawn) [Cpd 460, {4-[1-(Biphenyl-4-ylcarbonyl)azetidin-3-yl]-1-(phenylcarbonyl)piperazin-2-yl}methanol] | 9100 | 
CSc1ccc(C(=O)N2CC(N3CCN(C(=O)c4ccccc4)CC3)C2)cc1 [Cpd 470, 1-(1-{[4-(Methylsulfanyl)phenyl]carbonyl}azetidin-3-yl)-4-(phenylcarbonyl)piperazine] | 2940 | 
CC(=O)Oc1ccc(C(=O)N2CC(N3CCN(C(=O)c4nccs4)CC3)C2)cc1 [Cpd 471, 4-({3-[4-(1,3-Thiazol-2-ylcarbonyl)piperazin-1-yl]azetidin-1-yl}carbonyl)phenyl acetate] | 2500 | 
CS(=O)(=O)c1ccc(C(=O)N2CC(N3CCN(C(=O)c4ccccc4)CC3)C2)cc1 [Cpd 472, 1-(1-{[4-(Methylsulfonyl)phenyl]carbonyl}azetidin-3-yl)-4-(phenylcarbonyl)piperazine] | 6670 | 
O=C(c1ccccc1)N1CCN(C2CN(C(=O)c3cccnc3Oc3ccc(Cl)cc3)C2)CC1 [Cpd 474, 1-(1-{[2-(4-Chlorophenoxy)pyridin-3-yl]carbonyl}azetidin-3-yl)-4-(phenylcarbonyl)piperazine] | 5000 | 
O=C(c1nccs1)N1CCN(C2CN(C(=O)C3CCC(c4ccccc4)CC3)C2)CC1 (stereo not drawn) [Cpd 475] | 25 | 
O=C(C#Cc1ccccc1)N1CC(N2CCN(C(=O)c3nccs3)CC2)C1 [Cpd 477] | 2000 | 
O=C(c1ccccc1)C1CCC(C(=O)N2CC(N3CCN(C(=O)c4cscn4)CC3)C2)CC1 (stereo not drawn) [Cpd 478] | 2000 | 
Cc1ccc(Sc2ncccc2C(=O)N2CC(N3CCN(C(=O)c4cscn4)CC3)C2)cc1 [Cpd 479] | 6670 | 
CC(=O)Nc1nc(C(=O)N2CCN(C3CN(C(=O)c4ccc(-c5ccccc5)cc4)C3)CC2)cs1 [Cpd 480] |  | > 76700
O=C(c1ccccc1)N1CCN(C2CN(C(=O)c3ccc(OCc4cccc(Cl)c4Cl)c(F)c3)C2)CC1 [Cpd 483] |  | 20
O=C(c1ccccc1)N1CCN(C2CN(C(=O)c3ccc(NCc4ccc5ccccc5c4)cc3)C2)CC1 [Cpd 491, N-(Naphthalen-2-ylmethyl)-4-({3-[4-(phenylcarbonyl)piperazin-1-yl]azetidin-1-yl}carbonyl)aniline] | 100 | 
O=C(c1ccccc1)N1CCN(C2CN(C(=O)c3ccc(NCc4ccccc4Cl)cc3)C2)CC1 [Cpd 492, N-(2-Chlorobenzyl)-4-({3-[4-(phenylcarbonyl)piperazin-1-yl]azetidin-1-yl}carbonyl)aniline] | 167 | 
O=C(c1ccccc1)N1CCN(C2CN(C(=O)c3ccc(NCc4ccc(Cl)c(Cl)c4)cc3)C2)CC1 [Cpd 493, N-(3,4-Dichlorobenzyl)-4-({3-[4-(phenylcarbonyl)piperazin-1-yl]azetidin-1-yl}carbonyl)aniline] | 25 | 

SMILES | Kd [1] [nM] | Kd [2] [nM]
O=C(c1ccccc1)N1CCN(C2CN(C(=O)c3ccc(NCc4ccc(F)c(C(F)(F)F)c4)cc3)C2)CC1 [Cpd 494, N-[4-Fluoro-3-(trifluoromethyl)benzyl]-4-({3-[4-(phenylcarbonyl)piperazin-1-yl]azetidin-1-yl}carbonyl)aniline] | 100 | 
CC(C)(C)OC(=O)Nc1ccc(C(=O)N2CC(N3CCN(C(=O)c4ccccc4)CC3)C2)cc1 [Cpd 496, tert-Butyl [4-({3-[4-(phenylcarbonyl)piperazin-1-yl]azetidin-1-yl}carbonyl)phenyl]carbamate] | 287 | 
O=C(c1ccccc1)N1CCN(C2CN(C(=O)C3CCC(C(F)(F)F)CC3)C2)CC1 (stereo not drawn) [Cpd 502] | > 76700 | 
O=C(c1ccccc1)N1CCN(C2CN(C(=O)C3CCC(c4ccc(Cl)cc4)CC3)C2)CC1 (stereo not drawn) [Cpd 503] | 254 | 
O=C(c1ccccc1)N1CCN(C2CN(C(=O)c3sc4cc(F)ccc4c3C3CC3)C2)CC1 [Cpd 528] | 49 | 
COc1cc(NCc2ccccc2)c(Cl)cc1C(=O)N1CC(N2CCN(C(=O)c3ccccc3)CC2)C1 [Cpd 529] | 317 | 
O=C(c1ccccc1)N1CCN(C2CN(C(=O)c3ccc(NC4CCC(F)(F)CC4)cc3)C2)CC1 [Cpd 530] | 89 | 
O=C(c1ccccc1)N1CCN(C2CN(C(=O)c3cccc(NCc4ccccc4)c3)C2)CC1 [Cpd 531, N-Benzyl-3-({3-[4-(phenylcarbonyl)piperazin-1-yl]azetidin-1-yl}carbonyl)aniline] | 2730 | 
O=C(c1ccccc1)N1CCN(C2CN(C(=O)c3ccc(Oc4ccc(Br)cn4)cc3)C2)CC1 [Cpd 532] | 2330 | 
O=C(c1ccccc1)N1CCN(C2CN(C(=O)c3ccc(Oc4ccccn4)c(F)c3)C2)CC1 [Cpd 537] | 3330 | 
CC(C)(C)OC(=O)N1CCC(c2cccc(C(=O)N3CC(N4CCN(C(=O)c5ccccc5)CC4)C3)c2)CC1 [Cpd 538] |  | 2590
O=C(Nc1cccc(C(=O)N2CC(N3CCN(C(=O)c4ccccc4)CC3)C2)c1)C1CCCCC1 [Cpd 539, N-[3-({3-[4-(Phenylcarbonyl)piperazin-1-yl]azetidin-1-yl}carbonyl)phenyl]cyclohexanecarboxamide] | > 31200 | 
O=C(c1ccccc1)N1CCN(C2CN(C(=O)c3ccc(N4CCOCC4)cc3)C2)CC1 [Cpd 541, 4-[4-({3-[4-(Phenylcarbonyl)piperazin-1-yl]azetidin-1-yl}carbonyl)phenyl]morpholine] | 1660 | 
CC(=O)N1CCC(c2ccc(C(=O)N3CC(N4CCN(C(=O)c5ccccc5)CC4)C3)cc2)CC1 [Cpd 546] |  | 12400
O=C(c1ccccc1)N1CCN(C2CN(C(=O)c3ccc(CNc4cccc(Cl)c4)cc3)C2)CC1 [Cpd 549] | 60 | 
O=C(c1ccccc1)N1CCN(C2CN(C(=O)c3ccc(CSc4cccc(Cl)c4)cc3)C2)CC1 [Cpd 551] | 180 | 
O=C(c1ccccc1)N1CCN(C2CN(C(=O)c3ccc(OCc4cccc(Br)n4)cc3)C2)CC1 [Cpd 552] |  | 400
O=C(c1ccccc1)N1CCN(C2CN(C(=O)c3ccc(CNc4ccccc4F)cc3)C2)CC1 [Cpd 553] | 372 | 
O=C(c1ccccc1)N1CCN(C2CN(C(=O)c3ccc(OCc4cncc(Cl)c4)cc3)C2)CC1 [Cpd 554] |  | 1990
O=C(c1ccccc1)N1CCN(C2CN(C(=O)c3ccc(SCc4cccnc4)cc3)C2)CC1 [Cpd 555] | 2000 | 
O=C(c1ccccc1)N1CCN(C2CN(C(=O)c3ccc(CNc4c(F)cccc4F)cc3)C2)CC1 [Cpd 556] | 97 | 
O=C(c1ccccc1)N1CCN(C2CN(C(=O)c3ccc(CNc4ccc(F)c(F)c4F)cc3)C2)CC1 [Cpd 557] | 114 | 
Cc1nc(COc2ccc(Cl)cc2)sc1C(=O)N1CC(N2CCN(C(=O)c3ccccc3)CC2)C1 [Cpd 558, 1-[1-({2-[(4-Chlorophenoxy)methyl]-4-methyl-1,3-thiazol-5-yl}carbonyl)azetidin-3-yl]-4-(phenylcarbonyl)piperazine] | 333 | 
O=C(c1ccccc1)N1CCN(C2CN(C(=O)c3ccc(OCc4ccc5ccccc5n4)cc3)C2)CC1 [Cpd 560] |  | 652
O=C(c1ccccc1)N1CCN(C2CN(C(=O)c3cccc(CNc4ccccc4F)c3)C2)CC1 [Cpd 561] | 542 | 
